The text below walks through data of the NIST ThermoML archive (doi:10.1016/j.jct.2015.04.021).

The data set is described as follows: xn = mol fraction of the nth substance listed. As to conditions: 101.3 kPa, Liquid, Pycnometric method.

SMILES strings stand for the structures. ± gives the expanded uncertainty stated by the source.

What is called mass density is mass per unit of volume.

Regarding `OCc1ccco1` [2-hydroxymethylfuran] + C[N+](C)(C)CCO.[Cl-], the mass density runs as follows: (303.15 K, x1 = 0.75) 1131.8 ± 1.3 kg/m3; (303.15 K, x1 = 0.8) 1131.5 ± 1.3 kg/m3; (303.15 K, x1 = 0.833) 1130.9 ± 1.3 kg/m3; (313.15 K, x1 = 0.75) 1125.2 ± 1.3 kg/m3; (313.15 K, x1 = 0.8) 1124.3 ± 1.3 kg/m3; (313.15 K, x1 = 0.833) 1123.8 ± 1.3 kg/m3. The mass density came out at 1118.6 ± 1.3 kg/m3 (323.15 K, x1 = 0.75); 1117.1 ± 1.3 kg/m3 (323.15 K, x1 = 0.8); 1116.6 ± 1.3 kg/m3 (323.15 K, x1 = 0.833); 1112 ± 1.3 kg/m3 (333.15 K, x1 = 0.75); 1109.9 ± 1.3 kg/m3 (333.15 K, x1 = 0.8); 1109.5 ± 1.3 kg/m3 (333.15 K, x1 = 0.833).

On to `CC(=O)CCC(=O)O` [4-oxopentanoic acid] + C[N+](C)(C)CCO.[Cl-], for which the mass density reads like this: (303.15 K, x1 = 0.75) 1134.6 ± 1.1 kg/m3; (303.15 K, x1 = 0.8) 1134.1 ± 1.1 kg/m3; (303.15 K, x1 = 0.833) 1133.7 ± 1.1 kg/m3; (313.15 K, x1 = 0.75) 1127.6 ± 1.1 kg/m3; (313.15 K, x1 = 0.8) 1127.3 ± 1.1 kg/m3; (313.15 K, x1 = 0.833) 1127 ± 1.1 kg/m3. For the same compound, the mass density was found to be 1120.9 ± 1.2 kg/m3 (323.15 K, x1 = 0.75); 1120.4 ± 1.2 kg/m3 (323.15 K, x1 = 0.8); 1120.2 ± 1.2 kg/m3 (323.15 K, x1 = 0.833); 1113.8 ± 1.2 kg/m3 (333.15 K, x1 = 0.75); 1113.1 ± 1.2 kg/m3 (333.15 K, x1 = 0.8); 1113 ± 1.2 kg/m3 (333.15 K, x1 = 0.833).
